Data: patent US11571418B2, “Platinum compounds that inhibit constitutive STAT3 signaling and induce cell cycle arrest and apoptosis of malignant cells” (H. LEE MOFFITT CANCER CENTER AND RESEARCH INSTITUTE, INC., priority 2011, dated 2023)

What was measured:
Stat3 = biological target: T1, Stat3 (Mus musculus, UniProt P42227); assay: In vitro Stat3 DNA-binding activity assay, EMSA with hSIE probe
T1 construct: Nuclear extract preparation from NIH3T3 stimulated by rhIL-6, NIH3T3/hEGFR stimulated by rhEGF; endogenous in cells; host or cells: NIH3T3/hEGFR fibroblasts stimulated with rhEGF (nuclear extract)
T1 sequence (P42227 2-770 limits assumed): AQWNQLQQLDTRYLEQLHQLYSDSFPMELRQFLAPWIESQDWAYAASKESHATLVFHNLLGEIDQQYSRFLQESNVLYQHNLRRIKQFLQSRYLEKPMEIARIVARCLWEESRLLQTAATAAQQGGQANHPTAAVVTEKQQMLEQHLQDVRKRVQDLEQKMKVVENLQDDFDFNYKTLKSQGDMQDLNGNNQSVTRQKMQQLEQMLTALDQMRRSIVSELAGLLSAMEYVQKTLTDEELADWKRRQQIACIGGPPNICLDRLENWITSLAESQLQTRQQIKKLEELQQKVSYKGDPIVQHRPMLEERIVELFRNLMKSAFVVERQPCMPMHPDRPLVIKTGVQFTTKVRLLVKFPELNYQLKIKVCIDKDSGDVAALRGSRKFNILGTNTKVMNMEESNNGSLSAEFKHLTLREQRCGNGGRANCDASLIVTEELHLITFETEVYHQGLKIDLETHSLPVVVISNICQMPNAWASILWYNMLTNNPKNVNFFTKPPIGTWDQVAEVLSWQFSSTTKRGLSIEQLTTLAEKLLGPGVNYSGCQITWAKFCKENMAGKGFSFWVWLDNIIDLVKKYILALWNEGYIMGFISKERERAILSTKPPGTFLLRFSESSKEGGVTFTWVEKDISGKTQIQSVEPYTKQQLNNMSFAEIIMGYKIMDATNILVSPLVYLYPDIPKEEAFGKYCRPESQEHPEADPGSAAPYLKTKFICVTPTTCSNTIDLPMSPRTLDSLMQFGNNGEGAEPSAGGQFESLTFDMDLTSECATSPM
Description: FIGS. 1A-1E. Inhibition of in vitro Stat3 DNA-binding activity by a platinum complex. Nuclear extracts or cell lysates containing activated Stat1, Stat3 and Stat5, or E2F1 prepared from NIH3T3/hEGFR that are stimulated with EGF or Sf-9 insect cells that are infected with baculovirus expressing Stat1, Stat3, Stat5, or E2F1, respectively, were treated with or without the indicated concentrations of platinum complex, PLATINUM-401 or Cisplatin, for 30 min at room temperature prior to incubation with radiolabeled oligonucleotide probes, and subjected to EMSA analysis. (FIG. 1A) (i) Stat1 and Stat3 binding activities to hSIE probe, (ii) Stat1 and Stat5 binding activities to MGFe probe, and (iii) plot of % oligonucleotide probe-STAT:STAT complexes versus concentration of PLATINUM-401. […] Positions of STAT: STAT-DNA complexes in gel are labeled. In (A) to (C), the control lanes represent DMSO (vehicle)-treatment.
Nuclear extract preparation and gel shift assays—Nuclear extract preparation from NIH3T3 stimulated by rhIL-6, NIH3T3/hEGFR stimulated by rhEGF, v-Src-transformed fibroblasts (NIH3T3/v-Src) or tumor cell lines and electrophoretic mobility shift assay were carried out as previously described (Turkson et al., 1998; Garcia et al., 1997; Yu et al., 1995). The ^32P-labeled oligonucleotide probes used are hSIE (high affinity sis-inducible element from the c-fos gene, m67 variant, 5′-[…]) (SEQ ID NO:1) that binds Stat1 and Stat3 (Garcia et al., 1997; Wagner et al., 1990) and MGFe (mammary gland factor element from the bovine β-casein gene promoter, 5′-AGATTTCTAGGAATTCAA) (SEQ ID NO:2) for Stat1 and Stat5 binding (49,50). Except where indicated, inhibitor compound was pre-incubated with the nuclear extract for 30 min at room temperature prior to incubation with radiolabeled probe.
Compounds from the NCI 2000 diversity set were screened for inhibition of Stat3 signaling in an in vitro DNA-binding activity assay based on analysis by electrophoretic mobility shift assay (EMSA). A platinum (IV) complex, PLATINUM-401 (NSC 295558) (FIG. 1E), was identified as a potent inhibitor of Stat3 and was further characterized for its anti-Stat3 properties. In the in vitro DNA-binding activity assay, nuclear extracts of equal total protein containing active Stat1, Stat3 and Stat5 were pre-incubated with different concentrations of PLATINUM-401 for 30 min prior to incubation with a [^32P]-labeled oligonucleotide, the m67 high affinity sis-inducible element (hSIE) probe that binds Stat1 and Stat3, or the mammary gland factor element (MGFe) that binds Stat1 and Stat5. Samples were then subjected to EMSA.

[1] = system: malignant cells harboring constitutively-active Stat3; assay: Constitutive Stat3 activation in treated malignant cells (EMSA of nuclear extracts); format: cell-based; conditions: 24 h treatment
Description: FIGS. 5A and 5B. Evaluation for effects of PLATINUM-401 on cellular constitutive Stat3 activation and cell proliferation. Normal or malignant cells were treated with or without PLATINUM-401 and nuclear extracts were prepared for Stat3 DNA-binding activity assay with hSIE probe, or cells were processed for nuclear Ki67 immunohistochemistry. (FIG. 5A) EMSA analysis of Stat3 DNA-binding activity; (FIG. 5B) Graphical representations of quantified nuclear staining of Ki-67 proliferation index. Stat3:Stat3-DNA complexes in gels are labeled. The Ki-67 proliferation indexes were calculated as the percent positive tumor cells relative to the total number of cells. Ki67 values are representative of 3 independent assays.
Nuclear extract preparation and gel shift assays—Nuclear extract preparation from NIH3T3 stimulated by rhIL-6, NIH3T3/hEGFR stimulated by rhEGF, v-Src-transformed fibroblasts (NIH3T3/v-Src) or tumor cell lines and electrophoretic mobility shift assay were carried out as previously described (Turkson et al., 1998; Garcia et al., 1997; Yu et al., 1995). […]
The inventors further examined the biological effects of PLATINUM-401 and determined whether any changes might correlate with the inhibition of constitutively-active Stat3. […]

[2] = system: Stat3 tyrosine phosphorylation; assay: Stat3 tyrosine phosphorylation, Western blot; format: cell-based; conditions: mouse fibroblasts, time- and dose-dependent
Description: FIGS. 3A-3D. Inhibition of Stat3-mediated gene expression by PLATINUM-401. (FIG. 3A) and (FIG. 3B) v-Src-transformed mouse fibroblasts that stably express Stat3-dependent (NIH3T3/v-Src/pLucTKS3) and Stat3-independent (NIH3T3/v-Src/pRLSRE) luciferase reporters or β-galactosidase (β-gal), as well as normal mouse fibroblast (NIH3T3) transiently transfected with pLucTKS3, pGL2-VEGF-Luc, NFkB-Luc or pLucSRE together with or without v-Src were treated with or without PLATINUM-401 for 48 h. Cytosolic extracts were then prepared from cells for luciferase and […] activities measurements. Values are the means and S.D. of three to five independent assays; (FIG. 3C) and (FIG. 3D) Nuclear extracts or whole cell lysates were prepared from IL-6-stimulated normal mouse fibroblasts (NIH3T3) or their v-Src-transformed counterpart (NIH3T3/v-Src) that are treated with or without PLATINUM-401 for different times. Samples of equal total proteins were then subjected to in vitro DNA-binding activity and EMSA analysis or for SDS-PAGE and Western blot analysis for phosphorylated and total Stat3.
Western blot—Whole-cell lysates were prepared in boiling sodium dodecyl sulfate (SDS) sample-loading buffer to extract total proteins from the cytoplasm and nucleus. […]
To further investigate the activities of PLATINUM-401, the inventors treated malignant cells and measured effects on Stat3 signaling. […]

CC(O)CN1CCN(CC(C)O)CC1 (stereo not drawn) [PLATINUM-401]
IC50 (Stat3): 1.4 µM
effect on Stat3 DNA-binding activity at low protein amount (Stat3; 1 μg protein): strong and a dose-dependent decrease
type of inhibition of Stat3 DNA-binding activity (Lineweaver-Burke plot) (Stat3; 0.3-2 μM compound, varied hSIE probe): non-competitive
effect on Stat3 DNA-binding activity at higher protein levels (Stat3; 2-3 μg protein): diminished effect
effect on Stat3 DNA-binding activity when protein is first bound to DNA (Stat3; Stat3 incubated with hSIE probe 30 min, then compound 3-30 min): fails to disrupt
effect on DNA-binding activity of Stat3:Stat3 homodimer (Stat3; pre-incubated 30 min before hSIE probe): dose-dependent reduction
effect on Stat3 DNA-binding activity on simultaneous addition of compound and hSIE probe (Stat3; simultaneous addition, data not shown): inhibition
constitutive activation of Stat3 [1]: significant inhibition
Stat3 tyrosine phosphorylation [2]: inhibits
